Tests used:
[1] = Inhibition of Pseudomonas aeruginosa PA14 PqsBC catalytic activity using 2-ABA/octanoyl-CoA as substrate after 5 mins
[2] = molecular target: T1, Transcriptional activator protein LasR (Pseudomonas aeruginosa (strain ATCC 15692 / PAO1 / 1C / PRS 101 / LMG12228)) (UniProt P25084); test: Antagonist activity at Pseudomonas aeruginosa LasR expressed in Pseudomonas putida F117 assessed as inhibition of 3-oxo-C12-HSL-induced protein activation at 20 uM after 4 hrs by fluorescence assay relative to control
T1 sequence (whole entry): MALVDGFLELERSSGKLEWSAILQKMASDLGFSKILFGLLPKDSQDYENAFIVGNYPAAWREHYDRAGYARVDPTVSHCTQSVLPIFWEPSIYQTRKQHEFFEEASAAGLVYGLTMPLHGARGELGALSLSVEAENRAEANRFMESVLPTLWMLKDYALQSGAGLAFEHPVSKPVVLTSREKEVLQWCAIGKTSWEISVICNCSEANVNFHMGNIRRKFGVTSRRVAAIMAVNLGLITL

[3] = molecular target: T1, Transcriptional activator protein LasR (Pseudomonas aeruginosa (strain ATCC 15692 / PAO1 / 1C / PRS 101 / LMG12228)); test: Non-competitive inhibition of Pseudomonas aeruginosa LasR expressed in Escherichia coli; settings: concentration not given here
[4] = molecular target: T2, HTH-type quorum-sensing regulator RhlR (Pseudomonas aeruginosa (strain ATCC 15692 / PAO1 / 1C / PRS 101 / LMG12228)) (UniProt P54292); test: Non-competitive inhibition of Pseudomonas aeruginosa RhlR expressed in Escherichia coli; settings: concentration not given here
T2 sequence (whole entry): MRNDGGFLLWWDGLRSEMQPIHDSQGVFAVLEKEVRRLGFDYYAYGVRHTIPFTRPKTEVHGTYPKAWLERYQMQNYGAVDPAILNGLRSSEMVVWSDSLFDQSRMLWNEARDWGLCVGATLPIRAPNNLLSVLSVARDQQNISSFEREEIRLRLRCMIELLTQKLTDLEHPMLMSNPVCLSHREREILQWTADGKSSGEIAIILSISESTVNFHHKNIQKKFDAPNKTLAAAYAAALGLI

[5] = molecular target: T3, Transcriptional activator protein LasR (Pseudomonas aeruginosa (strain ATCC 15692 / PAO1 / 1C / PRS 101 / LMG12228), UniProt P25084); test: Antagonist activity at Pseudomonas aeruginosa LasR expressed in Escherichia coli DH5alpha assessed as inhibition of protein interaction with OdDHL after 1.5 hrs by beta-galactosidase reporter gene assay
T3 sequence (P25084 whole entry): T1 sequence (whole entry)

[6] = Antagonist activity at Pseudomonas aeruginosa PqsR
[7] = molecular target: T4, 2-heptyl-4(1H)-quinolone synthase PqsD (Pseudomonas aeruginosa, UniProt A0A0C7ACN7); test: Antagonist activity at Pseudomonas aeruginosa PqsD
T4 sequence (A0A0C7ACN7 whole entry): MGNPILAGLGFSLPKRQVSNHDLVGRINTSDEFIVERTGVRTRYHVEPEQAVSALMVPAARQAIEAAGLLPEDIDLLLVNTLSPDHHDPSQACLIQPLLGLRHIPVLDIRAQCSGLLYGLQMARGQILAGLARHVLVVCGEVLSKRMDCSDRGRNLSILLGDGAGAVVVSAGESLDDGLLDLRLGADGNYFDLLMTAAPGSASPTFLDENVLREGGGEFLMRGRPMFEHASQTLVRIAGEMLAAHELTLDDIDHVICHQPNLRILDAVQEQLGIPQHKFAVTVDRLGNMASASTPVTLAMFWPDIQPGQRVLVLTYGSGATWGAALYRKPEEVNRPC

[8] = Antagonist activity at Escherichia coli DH5alpha PqsR by beta-galactosidase reporter gene assay
[9] = molecular target: T3, Transcriptional activator protein LasR; test: Antagonist activity at LasR in Pseudomonas aeruginosa reporter strain
[10] = molecular target: T4, 2-heptyl-4(1H)-quinolone synthase PqsD; test: Inhibition of Pseudomonas aeruginosa PqsD
[11] = Inhibition of Pseudomonas aeruginosa PqsR
[12] = molecular target: T5, Acyl-homoserine-lactone synthase (Pseudomonas aeruginosa (strain ATCC 15692 / PAO1 / 1C / PRS 101 / LMG12228)) (UniProt P33883); test: Inhibition of Pseudomonas aeruginosa PAO1 LasI after 10 mins by beta-galactosidase reporter gene assay
T5 sequence (whole entry): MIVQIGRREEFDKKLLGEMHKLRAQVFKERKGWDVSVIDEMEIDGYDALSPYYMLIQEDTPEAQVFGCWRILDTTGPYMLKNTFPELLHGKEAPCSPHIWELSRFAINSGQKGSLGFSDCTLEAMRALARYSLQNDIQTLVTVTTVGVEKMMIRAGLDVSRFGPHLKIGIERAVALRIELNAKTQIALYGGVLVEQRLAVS

[13] = molecular target: T6, HTH-type quorum-sensing regulator RhlR (Pseudomonas aeruginosa (strain ATCC 15692 / PAO1 / 1C / PRS 101 / LMG12228), UniProt P54292); test: Inhibition of Pseudomonas aeruginosa GFP-fused RhlR expressed in Escherichia coli BL21-Gold (DE3) co-expressing rhlA promoter by beta-galactosidase reporter gene assay
T6 sequence (P54292 whole entry): T2 sequence (whole entry)

Pseudomonas aeruginosa [14] = test: Antibiofilm activity against Pseudomonas aeruginosa PA14 at 100 uM; type: functional
[15] = molecular target: T3, Transcriptional activator protein LasR; test: Antagonist activity at Pseudomonas aeruginosa LasR expressed in Escherichia coli DH5alpha assessed as inhibition of […]-induced receptor activation after 4 hrs by Miller-type beta-galactosidase reporter gene assay
[16] = molecular target: T3, Transcriptional activator protein LasR; test: Antagonist activity at Pseudomonas aeruginosa MW1 LasR assessed as inhibition of protein interaction with OdDHL by beta-galactosidase reporter gene assay
[17] = molecular target: T3, Transcriptional activator protein LasR; test: Inhibition of LasR in Pseudomonas aeruginosa harboring GFP-fused quorum sensing lasB measured every 15 mins up to 12 hrs by GFP reporter gene assay
[18] = molecular target: T4, 2-heptyl-4(1H)-quinolone synthase PqsD; test: Inhibition of recombinant Pseudomonas aeruginosa PqsD expressed in Escherichia coli using anthraniloyl-CoA as substrate assessed as decrease in HHQ production
[19] = molecular target: T4, 2-heptyl-4(1H)-quinolone synthase PqsD; test: Binding affinity to recombinant Pseudomonas aeruginosa PqsD at 298 K by ITC assay
[20] = molecular target: T1, Transcriptional activator protein LasR (Pseudomonas aeruginosa (strain ATCC 15692 / PAO1 / 1C / PRS 101 / LMG12228)); test: Inhibition of OC12-HSL-dependent LasR activation in Pseudomonas aeruginosa MH602 harboring GFP-fused quorum sensing lasB at 250 uM measured every 30 mins up to 15 hrs by GFP reporter gene assay
[21] = Inhibition of Pseudomonas aeruginosa PqsBC assessed as decrease in conversion of 2-ABA/octanoyl-CoA to HHQ measured every 60 secs
[22] = Antagonist activity at Escherichia coli LasR assessed as inhibition of protein interaction with OdDHL by beta-galactosidase reporter gene assay
Escherichia coli = test: Antagonist activity at Escherichia coli LasR at 6 uM by luciferase reporter gene assay
[23] = molecular target: T3, Transcriptional activator protein LasR; test: Inhibition of LasR in Pseudomonas aeruginosa reporter strain harboring gfp-lasB
[24] = Antagonist activity at Escherichia coli His6/Sumo-tagged PqsR by beta-galactosidase reporter gene assay
[25] = Antagonist activity at Pseudomonas aeruginosa His6/Sumo-tagged PqsR by beta-galactosidase reporter gene assay
Pseudomonas aeruginosa [26] = test: In vivo inhibition of Pseudomonas aeruginosa PA14 PqsR in immunocompetent acute mouse thigh infection model assessed as decrease in PQS levels in plasma at 200 mg/kg, po administered at 2, 10, 18 and 26 hrs post infection measured at 12 hrs relative to control; type: functional
[27] = molecular target: T3, Transcriptional activator protein LasR; test: Antagonist activity at LasR in Pseudomonas aeruginosa PAO1 harboring GFP-fused quorum sensing lasB measured every 15 mins for 14 hrs by GFP reporter gene assay
Pseudomonas aeruginosa [28] = test: Inhibition of Pseudomonas aeruginosa quorum sensing system assessed as decrease in C4-HSL production at 6 mM relative to control
Pseudomonas aeruginosa [29] = test: Inhibition of Pseudomonas aeruginosa quorum sensing system assessed as decrease in 3OC12-HSL production at 6 mM relative to control
[30] = molecular target: T3, Transcriptional activator protein LasR; test: Antagonist activity at GFP-fused LasR in Pseudomonas aeruginosa PAO-JP2 co-expressing LVAgfp plasmid by fluorescence assay
Pseudomonas aeruginosa [31] = test: Inhibition of Pseudomonas aeruginosa PQS signaling at 138 uM relative to control
[32] = molecular target: T2, HTH-type quorum-sensing regulator RhlR (Pseudomonas aeruginosa (strain ATCC 15692 / PAO1 / 1C / PRS 101 / LMG12228)); settings: 2.27 mM
Description: Antagonist activity at Pseudomonas aeruginosa PAO1 GFP-fused RhlR expressed in Escherichia coli DH5alpha co-expressing rhlA promoter assessed as inhibition of L-arabinose-induced C4-HSL production at 2.27 mM after 5 hrs relative to control

## O=C(CSc1nc2ccc([N+](=O)[O-])cc2[nH]1)Nc1ccc(I)cc1
[1]
  IC50: 13.4 µM

## NC(=O)SCNc1ccccc1O
[2]
  inhibition: 50 to 60%

## O=c1cc(-c2ccccc2)oc2c(O)c(O)ccc12
[3]
  inhibition: > 70%
[4]
  inhibition: > 70%

## CCCCCCCC(=O)N[C@H]1CCOC1=O
[5]
  IC50: 340 nM

## CS(=O)(=O)c1ncc(-n2cc(C(O)C3CCCC3)nn2)cn1 (configuration not stated)
[6]
  IC50: 26 µM

## CCN(CC)S(=O)(=O)c1cc(C(=O)Nc2ccccc2C(=O)O)ccc1Br
[7]
  IC50: 65 µM

## CCCCCCCc1cc(=O)c2cc([N+](=O)[O-])ccc2[nH]1
[8]
  IC50: 51 nM

## Nc1cccc(-n2cc(CCC(=O)N[C@H]3CCOC3=O)nn2)c1
[9]
  IC50: 4.03 µM

## O=C(Nc1ccccc1C(=O)O)c1ccc(-c2ccccc2)c(Oc2ccccc2)c1
[7]
  IC50: 35 µM

## CS(=O)(=O)c1ncc(-n2cnnn2)cn1
[10]
  IC50: 21 µM
[11]
  IC50: 15 µM

## CCCCCCC/C=C1\SC(=O)NC1=O
[12]
  inhibition: 40%

## O=C(N[C@H]1CCOC1=O)c1ccc(-n2cc(CSc3ccccc3)nn2)cc1
[9]
  IC50: 2.64 µM

## O=C(CCCCOc1cccc(Br)c1)NC1CCSC1=O (configuration not stated)
[13]
  IC50: 8 µM

## CCCCCCS(=O)(=O)c1ncc(-n2ccnn2)cn1
[10]
  IC50: 1.7 µM
Pseudomonas aeruginosa [14]
  Activity: 60%

## O=C(CCCCCCCCCN=C=S)CC(=O)N[C@H]1CCOC1=O
[15]
  IC50: 134 µM

## O=C(CCSc1ccc(Cl)cc1)N[C@H]1CCOC1=O
[9]
  IC50: 5.2 µM

## O=C(CCCC1CCCCC1)N[C@H]1CCOC1=O
[5]
  IC50: 10000 nM

## CCCCCCCCNC(=O)CC(=O)c1ccccc1
[16]
  IC50: 10 µM

## Nc1ccc(S(=O)(=O)Nc2nccs2)cc1 [SULFATHIAZOLE]
[17]
  IC50: 9 µM

## O=[N+]([O-])c1ccccc1C(O)c1ccccc1 (configuration not stated)
[18]
  IC50: 3.2 µM
[19]
  Kd: 13 µM

## CCOC(=O)CNC(=O)C(=O)c1ccccc1Nc1ccc([N+](=O)[O-])cc1[N+](=O)[O-]
[20]
  inhibition: 48%

## CC(=O)c1ccccc1N [2-AMINOACETOPHENONE]
[21]
  EC50: 46 µM

## CCCCCC(=O)Nc1c(-c2ccccc2)[nH]c2ccccc12
[20]
  inhibition: 65%

## O=C(Cc1cccc(I)c1)N[C@H]1CCOC1=O
[5]
  IC50: 1720 nM

## O=C(NCCc1ccc(Br)cc1)c1ccccc1[N+](=O)[O-]
[22]
  IC50: 4.8 µM

## CCCCCCCSCC(=O)N[C@H]1CCOC1=O
Escherichia coli
  inhibition: 50%

## C=CCSS/C=C/C[S+]([O-])CC=C (configuration not stated) [AJOENE]
[23]
  IC50: 15 µM

## CC(C)(C)c1ccc(C(=O)NO)cc1
[24]
  IC50: 12.5 µM
[25]
  IC50: 23.6 µM

## O=C(CCc1ccc(Br)cc1)N[C@H]1CCOC1=O
[5]
  IC50: 250 nM

## CCCCCCCOc1ccc(C(=O)N[C@H]2CCOC2=O)cc1
[5]
  IC50: 1000 nM

## NC(=O)c1cc2cc(Cl)ccc2cc1OCC(=O)c1c[nH]c2cc(C3CC3)ccc12
Pseudomonas aeruginosa [26]
  inhibition in vivo at 200 mg/kg: 50%

## Nc1nc2nn[nH]c2c(=O)[nH]1 [8-AZAGUANINE]
[27]
  IC50: 640 nM

## CN(C)CCc1ccc(O)cc1
Pseudomonas aeruginosa [28]
  inhibition: 70%
Pseudomonas aeruginosa [29]
  inhibition: 30%

## O=C(Cc1ccc(Br)cc1)N[C@H]1CCOC1=O
[30]
  IC50: 14.8 µM

## O=C(CCCc1c[nH]c2ccccc12)N[C@H]1CCOC1=O
[30]
  IC50: 16.1 µM

## CCCCc1cn(CC(=O)N[C@H]2CCOC2=O)nn1
[9]
  IC50: 3.27 µM

## NCCCCCCCCCCCCNc1ccnc2cc(Cl)ccc12
Pseudomonas aeruginosa [31]
  inhibition: 81%

## C[S+]([O-])CCCCN=C=S (configuration not stated)
[32]
  inhibition: 42.1%

## CCCCCCCc1cc(=O)c2cc(C(F)(F)F)ccc2[nH]1
[8]
  IC50: 54 nM

## Cc1ccc2nc(SCC(=O)Nc3ccc(Br)cc3)[nH]c2c1
[1]
  IC50: 12.5 µM

## NC(=O)SCNc1cccc(Cl)c1
[2]
  inhibition: 50 to 60%
